According to patent US11053207B2, “Indoleamine-2,3-dioxygenase inhibitor and preparation method therefor” (SHANGHAI INSTITUTE OF ORGANIC CHEMISTRY, CHINESE ACADEMY OF …, priority 2014, dated 2021):
Where “and” joins values, the source holds several entries; their conditions need not be identical. Identical values can stand only once.

Tests used:
[1] = tested on: Hela cells; assay: Test for cell activity (Hela cells, interferon γ, kynurenine read at 480 nm); format: cell-based; conditions: human interferon γ 50 ng/mL, 48 h
Method: Hela cells (100 μL) were inoculated on a 96-well plate at an inoculation amount of 5×10^3 per well and grown overnight. The next day, after the compound was diluted, 1 μL was added to a 96-well plate and then 100 μL of medium containing human interferon y (final concentration of 50 ng/mL) was added to the 96-well plate to allow the final volume to be 200 μL. 48 h after incubating, 140 μL of supernatant in each well was transferred to a new 96-well plate. 10 μL of 6.1 N trichloroacetic acid was added to each well and mixed and incubated at 50° C. for 30 min, IDO catalyzed N-formyl canine urea to become canine urea. The reaction mixture was centrifuged at 2500 rpm for 10 minutes to remove the precipitate. 100 μL of supernatant in each well was transferred to a new 96-well plate and mixed with 100 μL of 2% dimethylaminobenzaldehyde acetic acid solution. After the canine urea was separated, the value was measured at 480 nm using a SPECTRAmax i3 reader.

[2] = Pharmacokinetics of compound 6 in ICR mice after oral compound 13 (prodrug); format: in vivo; conditions: for AUMC0-inf / AUMC0-t / Kel / MRTPO: compound 6 in ICR mice after oral compound 13 30 mg/kg
Method: Compound 13 was orally administered to ICR mice. Blood samples were collected at different time points. LC-MS/MS was used to determine the concentration of compound 6 in the plasma of mice after administration of the test substance, and the relevant pharmacokinetic parameters were calculated, the pharmacological properties of compound 6 in mice was investigated.
Experimental design: 3 ICR mice, provided by Suzhou Zhaoyan New Drug Research and Development Co., Ltd.; the experiment was carried out according to Table 6.
Each animal was anesthetized with isoflurane and thereafter about 25 μL of blood was collected through the eyepit, anticoagulated with EDTAK2, the collecting time points were: before administration of the test substance (0 hr) and 15 min, 30 min, 1 h, 2 h, 4 h, 6 h, 8 h and 24 h after administration of the test substance. Blood samples were collected and placed on ice and the plasma was centrifuged and separated within 1 hour (centrifugal conditions: 5000 rpm, 10 minutes, 4° C.). The collected plasma was stored at −20° C. before analysis.
Data acquisition and control system software was the Analyst1.5.1 software (Applied Biosystem). The sample peak integral method was automatic integration; The ratio of the peak area of the sample and the peak area of the internal standard was taken as the index and the concentration of the sample was regressed. Regression method: linear regression, the weight coefficient was 1/X^2. Pharmacokinetic parameters were analyzed with a non-compartmental model using WinNonlin Professional v6.3 (Pharsight, USA). Cmax is the measured maximum blood concentration, and the area under the blood concentration-time curve AUC(0→t) was calculated from the trapezoidal method, and Tmax is the peak blood concentration time after administration. The experimental data is expressed as “mean±SD, n≥3” or “mean” (mean, n=2).

SMILES: CS(=O)(CCNc1nonc1/C(=N/O)Nc1ccc(F)c(Br)c1)=NC#N (racemic) [compound 6, (±)(Z)—N-(3-bromo-4-fluorophenyl)-N′-hydroxy-4-((2-(thio-methylsulfoxidecyanoimine)ethyl)amino)-1,2,5-oxadiazole-3-carboxamidine]
- IC50 [1]: 1.8 nM
- pharmacokinetic parameters (overall judgement) ([2]; ICR mice, after oral compound 13): excellent pharmacokinetic parameters
- AUMC0-inf ([2]; individual mouse): 46297 hr*hr*ng/mL and 13854 hr*hr*ng/mL and 21447 hr*hr*ng/mL
- AUMC0-t ([2]; individual mouse): 19793 hr*hr*ng/mL and 12189 hr*hr*ng/mL and 16309 hr*hr*ng/mL
- Kel ([2]; individual mouse): 0.0695 h⁻¹ and 0.156 h⁻¹ and 0.123 h⁻¹
- MRTPO ([2]; individual mouse): 15.0 h and 6.25 h and 7.99 h
- AUMC0-inf ([2]; mean): 27199 hr*hr*ng/mL
- AUMC0-t ([2]; mean): 16097 hr*hr*ng/mL
- Kel ([2]; mean): 0.116 h⁻¹
- MRTPO ([2]; mean): 9.76 ± 4.64 h and 9.76 h
